Data from the NIST ThermoML archive (doi:10.1016/j.tca.2004.11.022).
± gives the expanded uncertainty stated by the source.

Columns and labels:
[1] = 101.33 kPa, Liquid; for mass density: Vibrating tube method; for speed of sound: Pulse-echo method
[2] = molar heat capacity at constant pressure; settings: 101.33 kPa, Liquid, Small sample (50 mg) DSC

| SMILES | mass density ([1]; 288.15 K) [kg/m3] | mass density ([1]; 293.15 K) [kg/m3] | speed of sound ([1]; 298.15 K) [m/s] | mass density ([1]; 298.15 K) [kg/m3] | mass density ([1]; 308.15 K) [kg/m3] | molar heat capacity at constant pressure ([2]; 288.15 K) [J/K/mol] | molar heat capacity at constant pressure ([2]; 298.15 K) [J/K/mol] | molar heat capacity at constant pressure ([2]; 308.15 K) [J/K/mol] |
| --- | --- | --- | --- | --- | --- | --- | --- | --- |
| CCCCCCCC [octane] | 706.54 ± 0.26 | 702.53 ± 0.26 | 1172.1 ± 1.3 | 698.5 ± 0.27 | 690.34 ± 0.27 | 250.12 ± 5 | 253.94 ± 5.1 | 258.03 ± 5.2 |
| CCCCCCCCC [nonane] | 721.66 ± 0.41 | 717.75 ± 0.41 | 1206.3 ± 1.6 | 713.85 ± 0.41 | 706.05 ± 0.41 | 280.13 ± 5.6 | 284.23 ± 5.7 | 288.8 ± 5.8 |
| COC(=O)OC [dimethyl carbonate] | 1076.56 ± 0.55 | 1070.02 ± 0.55 | 1197.1 ± 1.6 | 1063.42 ± 0.55 | 1050.11 ± 0.54 | 164.03 ± 3.3 | 165.02 ± 3.3 | 166.3 ± 3.3 |
